Source: patent publication US4866206A, “2-Halomethyl derivatives of 2-amino acids” (Merrell Dow France et Cie, priority 1988, dated 1989)
pKi: −log10 of the molar value.

What was measured:
[1] = target: T1, E. coli ODC (Escherichia coli, UniProt P21169); assay: time-dependent inhibition of bacterial ODC (in vitro), E. coli; format: biochemical, Escherichia coli (M.R.C. 59); design: supernatant (approximately 16 mg protein/ml), used for the measurement of ornithine decarboxylase; endogenous in cells; host or cells: Escherichia coli M.R.C; 59, supernatant of sonicated cells
T1 sequence (P21169 whole entry): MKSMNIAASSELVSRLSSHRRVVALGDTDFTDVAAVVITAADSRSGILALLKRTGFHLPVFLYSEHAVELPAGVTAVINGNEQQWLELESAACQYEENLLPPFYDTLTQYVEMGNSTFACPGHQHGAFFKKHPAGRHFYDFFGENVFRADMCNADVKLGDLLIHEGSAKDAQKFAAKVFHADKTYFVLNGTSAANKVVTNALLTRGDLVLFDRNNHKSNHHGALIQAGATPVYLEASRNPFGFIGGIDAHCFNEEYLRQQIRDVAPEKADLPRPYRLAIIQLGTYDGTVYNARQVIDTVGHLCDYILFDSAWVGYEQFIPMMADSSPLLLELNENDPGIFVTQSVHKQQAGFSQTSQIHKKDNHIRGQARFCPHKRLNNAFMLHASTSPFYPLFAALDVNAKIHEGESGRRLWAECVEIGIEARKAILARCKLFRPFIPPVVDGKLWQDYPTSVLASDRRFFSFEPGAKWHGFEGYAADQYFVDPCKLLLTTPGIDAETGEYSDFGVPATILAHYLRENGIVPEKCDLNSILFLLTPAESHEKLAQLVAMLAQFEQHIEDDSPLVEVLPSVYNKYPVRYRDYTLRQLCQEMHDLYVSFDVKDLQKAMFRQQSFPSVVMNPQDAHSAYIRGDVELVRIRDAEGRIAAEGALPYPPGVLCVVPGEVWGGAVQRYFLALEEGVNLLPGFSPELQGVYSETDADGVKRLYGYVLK
Method: 2-Fluoromethyl-2,5-diaminopentanoic acid (MFMO) was tested for in vitro inhibition of ornithine decarboxylase from Escherichia coli and from Pseudomonas aeruginosa according to the procedure described as follows:
Escherichia coli (M.R.C. 59) and Pseudomonas aeruginosa (A.T.C.C. 9027) were grown as described by Kallio et al., Biochem. J., 200, 69 (1981) in minimal medium [Davis et al., J. Bacteriol., 60, 17 (1950)] at 37° C. Cells were harvested by centrifugation (10 minutes at 10,000 g) and washed once with phosphate-buffered saline, pH 7.2 (0.125M NaCl, 10 mM Na2 HPO4, and 3 mM KH2 PO4). The cell pellet was suspended in 10 mM Tris/HCl (pH 7.5) containing 1 mM dithiothreitol and 0.1 mM EDTA and disrupted by sonication with a Branson Cell Disruptor 350 (5×30 sec, setting 3). Cell debris was removed by centrifugation at 25,000 g for 30 minutes and the supernatant (approximately 16 mg protein/ml), used for the measurement of ornithine decarboxylase, was stored frozen at -20° C. without appreciable loss of activity.
Ornithine decarboxylase activity was measured by the release of ^14 Co2. Assays contained 100 mM tris/HCl (pH 8.25 for E. coli and pH 7.5 for P. aeruginosa), 0.04 mM pyridoxal phosphate, 1mM dithiotheritol, 10 mM L-ornithine, 2.5 μCi D,L-[1-^14 C]ornithine and 80-120 μg bacterial protein in a total volume of 1 ml. […]
Time dependent irreversible inhibition of ornithine decarboxylase was determined according to the method of Kallio et al., Biochem. J., 200, 69 (1981). […] At selected times, 20 μl aliquots of the enzyme incubate were removed and transferred to the reaction flasks in which ODC activity was determined. […] The flasks were kept on ice until all time points were taken and then D,L-[1-^14 C]-ornithine was added and ODC activity was determined at 37° C. […]
Kinetic parameters for the inhibition of ODC were determined as described by Kitz, J. Biol. Chem., 237, 3245 (1962) as modified by Jung et al., Biochem. Biophys. […]

[2] = test system: female mice; assay: contragestational activity in mice; format: in vivo; conditions: for Resorption nodules gravid female / Viable feti gravid female: autopsy day 18
Method: 2-Fluoromethyl-2,5-diaminopentanoic acid (MFM) was tested for contragestational activity in mice according to the procedure of J. Fozard et al., Eur. J. Pharmacol., 65, 379 (1980).
In this experiment, the compound was given at the doses stated, subcutaneously (s.c.), every 6 hours starting at 12:00 on day 8 of gestation (4 doses). Animals were autopsied on day 18 and the numbers of viable feti and resorption nodules recorded.

[3] = target: T1, E. coli ODC; format: cell-based
[4] = target: T2, ornithine decarboxylase (Rattus norvegicus, UniProt P09057); assay: ODC activity remaining in rat tissues after a single dose (in vivo); design: species or system rats
T2 construct: from tissue; host or cells: rat ventral prostate and thymus
T2 sequence (P09057 1-461): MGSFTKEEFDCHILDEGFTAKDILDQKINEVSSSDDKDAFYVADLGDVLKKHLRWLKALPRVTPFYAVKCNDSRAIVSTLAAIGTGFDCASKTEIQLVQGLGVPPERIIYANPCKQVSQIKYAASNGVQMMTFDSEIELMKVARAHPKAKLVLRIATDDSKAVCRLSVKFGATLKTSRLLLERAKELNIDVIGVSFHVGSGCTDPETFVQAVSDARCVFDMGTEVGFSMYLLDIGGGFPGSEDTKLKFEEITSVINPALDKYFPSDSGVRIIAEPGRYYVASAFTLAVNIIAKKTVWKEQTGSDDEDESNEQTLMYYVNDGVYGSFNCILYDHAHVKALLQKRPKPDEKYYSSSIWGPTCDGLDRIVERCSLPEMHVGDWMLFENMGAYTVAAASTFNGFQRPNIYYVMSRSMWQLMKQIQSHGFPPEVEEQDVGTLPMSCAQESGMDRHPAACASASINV
Method: The ODC inhibitory activity of a compound can be determined in vitro by the method described by B. Metcalf et al., J. Am. Chem. Soc., 100, 2551 (1978) and in vivo by the method of C. Danzin, Life Sciences, 24, 519 (1979).
2-Fluoromethyl-2,5-diaminopentanoic acid and 2-fluoromethyl-2,6-diaminohexanoic acid were tested for inhibition of ornithine decarboxylase in rats according to the procedure of C. Danzin et al., Life Sciences, 24, 519 (1979).

[5] = test system: P. aeruginosa (A.T.C.C. 9027); assay: growth and polyamine content of P. aeruginosa cultures; format: cell-based; conditions: compound by itself
[6] = 50 mg/kg s.c. every 6 hours from day 8 of gestation (4 doses)
[7] = 100 mg/kg s.c. every 6 hours from day 8 of gestation (4 doses)
[8] = 200 mg/kg s.c. every 6 hours from day 8 of gestation (4 doses)
[9] = 400 mg/kg s.c. every 6 hours from day 8 of gestation (4 doses)
[10] = 6 hours after single oral dose, 12.5 mg/kg
[11] = 6 hours after single oral dose, 25 mg/kg
[12] = 6 hours after single oral dose, 50 mg/kg
[13] = 6 hours after single oral dose, 100 mg/kg

NCCCC(N)(CF)C(=O)O (stereo not shown) [MFMO, 2-Fluoromethyl-2,5-diaminopentanoic acid]
pKi ([1]; E. coli ODC, concentration giving half-maximal rate of inhibition, 20° C., pH 8.25): 3.44
T1/2 ([1]; E. coli ODC, half-life at infinite concentrations): 12 min
inhibition of ODC of E. coli in vitro ([1]; in vitro, in words): inhibit
Resorption nodules gravid female [2, 6]: 3.3 ± 1.1
Viable feti gravid female [2, 6]: 9.1 ± 1.5
Resorption nodules gravid female [2, 7]: 2.3 ± 0.6
Viable feti gravid female [2, 7]: 12.7 ± 0.9
Resorption nodules gravid female [2, 8]: 4.2 ± 1.2
Viable feti gravid female [2, 8]: 9.2 ± 1.5
Resorption nodules gravid female [2, 9]: 8.9 ± 1.9
Viable feti gravid female [2, 9]: 5.4 ± 1.5
interruption of embryogenesis ([2]; female mice, method of Fozard): capable of interrupting embryogenesis
inhibition at 2000 µM ([3]; bacteria grown in the presence of 2 mM of the compound): 99%
inhibition of ODC of E. coli in intact cells ([3]; intact cells, in words): inhibit
ODC Activity remaining in ventral prostate ([4]; 5 hours after single i.p. injection, 12.5 mg/kg): 70.5 ± 12.5 % Control
ODC Activity remaining in ventral prostate ([4]; 5 hours after single i.p. injection, 25 mg/kg): 77.0 ± 10.5 % Control
ODC Activity remaining in ventral prostate ([4]; 5 hours after single i.p. injection, 50 mg/kg): 57.0 ± 13.0 % Control
ODC Activity remaining in ventral prostate ([4]; 5 hours after single i.p. injection, 100 mg/kg): 14.5 ± 10.0 % Control
ODC Activity remaining in ventral prostate ([4]; 5 hours after single i.p. injection, 200 mg/kg): 15.5 ± 1.0 % Control
ODC Activity remaining in thymus [4, 10]: 81 ± 6 % Control
ODC Activity remaining in ventral prostate [4, 10]: 98 ± 18 % Control
ODC Activity remaining in thymus [4, 11]: 93 ± 8 % Control
ODC Activity remaining in ventral prostate [4, 11]: 67 ± 7 % Control
ODC Activity remaining in thymus [4, 12]: 99 ± 5 % Control
ODC Activity remaining in ventral prostate [4, 12]: 45 ± 7 % Control
ODC Activity remaining in thymus [4, 13]: 87 ± 6 % Control
ODC Activity remaining in ventral prostate [4, 13]: 44 ± 6 % Control
effect on cell growth [5]: no effect
